Each compound was assayed on Na^+-dependent Cl^−/HCO3^− exchanger (NCBE) (assay: Inhibition of the Na+-dependent Cl−/HCO3− exchanger (NCBE) in human endothelial cells (pHi recovery, BCECF fluorescence, FLIPR)). Conditions: 10 μM.
Format: cell-based
Procedure, shortened: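 ECV-304 cells loaded with 5 μM BCECF-AM in NH4Cl-containing saline, then placed in Na+/HCO3−-free buffer to acidify. pHi recovery started with Na+/HCO3− buffer (50 μM HOE 642) plus compound at various concentrations. Fluorescence kinetics over 2 min at 35 °C, normalised to 100% and 0% (HCO3−-free) controls.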

| SMILES | Residual activity % of the NCBE at 10 μM [%] |
| --- | --- |
| N#CNS(=O)(=O)c1ccccc1-c1ccc(CN(CCCc2ccccc2)C(=O)Cc2c[nH]c3ccccc23)cc1 [Example 202] | 38.5 |
| N#CNS(=O)(=O)c1ccccc1-c1ccc(CN(Cc2ccc(Cl)cc2)C(=O)C2CCCCC2)cc1 [Example 16] | 56.4 |
| COc1ccc(CN(Cc2ccc(-c3ccccc3S(=O)(=O)NC#N)cc2)C(=O)c2ccccc2Cl)cc1 [Example 57] | 82.1 |
| COc1ccc(CN(Cc2ccc(-c3ccccc3S(=O)(=O)NC#N)cc2)C(=O)c2ccc(C)cc2)cc1 [Example 70] | 94.7 |
| COc1ccccc1C(=O)N(Cc1ccc(-c2ccccc2S(=O)(=O)NC#N)cc1)Cc1cccc(Cl)c1Cl [Example 329] | 25.7 |
| N#CNS(=O)(=O)c1ccccc1-c1ccc(CN(Cc2nc3ccccc3[nH]2)C(=O)CCCCc2cccs2)cc1 [Example 224] | 79.8 |
| N#CNS(=O)(=O)c1ccccc1-c1ccc(CN(Cc2ccc(Cl)cc2)C(=O)CCc2ccccc2)cc1 [Example 66] | 83.1 |
| COC(=O)C(Cc1ccccc1)N(Cc1ccc(-c2ccccc2S(=O)(=O)NC#N)cc1)C(=O)CCCCc1cccs1 (stereo not drawn) [Example 225] | 88.1 |
| CC(C)CN(Cc1ccc(-c2ccccc2S(=O)(=O)NC#N)cc1)C(=O)C(c1ccccc1)c1ccccc1 [Example 112] | 90.4 |
| N#CNS(=O)(=O)c1ccccc1-c1ccc(CN(Cc2cccc(Cl)c2)C(=O)NC2CCCCC2)cc1 [Example 308] | 32.1 |
| Cc1cccc(CN(Cc2ccc(-c3ccccc3S(=O)(=O)NC#N)cc2)C(=O)Cc2cccs2)c1 [Example 311] | 10.4 |
| COc1cccc(CC(=O)N(Cc2ccc(-c3ccccc3S(=O)(=O)NC#N)cc2)C2CCCCC2)c1 [Example 24] | 92.1 |
| N#CNS(=O)(=O)c1ccccc1-c1ccc(CN(Cc2ccccc2)C(=O)C(NC(=O)OCc2ccccc2)c2ccccc2)cc1 (stereo not drawn) [Example 242] | 72.4 |
| N#CNS(=O)(=O)c1ccccc1-c1ccc(CN(Cc2ccc(Cl)c(Cl)c2)C(=O)Cc2cccs2)cc1 [Example 259] | 40.1 |
| N#CNS(=O)(=O)c1ccccc1-c1ccc(CN(Cc2cccs2)C(=O)CCCCc2ccccc2)cc1 [Example 253] | 35.3 |
| N#CNS(=O)(=O)c1ccccc1-c1ccc(CN(C(=O)Cc2cccs2)C2CCCCC2)cc1 [Example 30] | 95.2 |
| COCCC(=O)N(Cc1ccc(-c2ccccc2S(=O)(=O)NC#N)cc1)C1CCc2ccccc21 (stereo not drawn) [Example 324] | 60.5 |
| CC(C)(C)c1ccc(C(=O)N(CCO)Cc2ccc(-c3ccccc3S(=O)(=O)NC#N)cc2)cc1 [Example 32] | 68.0 |
| COc1cc(CN(Cc2ccc(-c3ccccc3S(=O)(=O)NC#N)cc2)C(=O)CC(C)(C)C)cc(OC)c1OC [Example 162] | 30.2 |
| COc1ccccc1CN(Cc1ccc(-c2ccccc2S(=O)(=O)NC#N)cc1)C(=O)c1cccs1 [Example 84] | 54.7 |
| N#CNS(=O)(=O)c1ccccc1-c1ccc(CN(Cc2cccc(Cl)c2)C(=O)NCc2ccccc2)cc1 [Example 307] | 55.8 |
| CC(C)(C)OC(=O)C(c1ccccc1)N(Cc1ccc(-c2ccccc2S(=O)(=O)NC#N)cc1)C(=O)Cc1cccs1 (stereo not drawn) [Example 269] | 94.4 |
| CN(Cc1ccc(-c2ccccc2S(=O)(=O)NC#N)cc1)C(=O)Cc1ccsc1 [Example 230] | 68.6 |
| CN(C)c1ccc(CN(Cc2ccc(-c3ccccc3S(=O)(=O)NC#N)cc2)C(=O)Cc2ccc(Cl)cc2)cc1 [Example 149] | 77.4 |
| COCCC(=O)N(CC=C(C)CCC=C(C)C)Cc1ccc(-c2ccccc2S(=O)(=O)NC#N)cc1 [Example 323] | 23.6 |
| N#CNS(=O)(=O)c1ccccc1-c1ccc(CN(Cc2cccc3ccccc23)C(=O)Cc2ccccc2Br)cc1 [Example 277] | 36.3 |

| SMILES | Residual activity % of the NCBE at 10 μM [%] |
| --- | --- |
| N#CNS(=O)(=O)c1ccccc1-c1ccc(CN(Cc2ccc(F)cc2)C(=O)Cc2cccs2)cc1 [Example 147] | 53.2 |
| N#CNS(=O)(=O)c1ccccc1-c1ccc(CN(CCc2ccc(S(N)(=O)=O)cc2)C(=O)Cc2ccccc2Cl)cc1 [Example 294] | 82.7 |
| COc1ccccc1CN(Cc1ccc(-c2ccccc2S(=O)(=O)NC#N)cc1)C(=O)C(c1ccccc1)c1ccccc1 [Example 114] | 81.7 |
| CC(C)=CCCC(C)=CCN(Cc1ccc(-c2ccccc2S(=O)(=O)NC#N)cc1)C(=O)CCOc1ccccc1 [Example 343] | 48.1 |
| N#CNS(=O)(=O)c1ccccc1-c1ccc(CN(CCCc2ccccc2)C(=O)Cc2csc3ccccc23)cc1 [Example 210] | 66.2 |
| Cc1ccc(CN(Cc2ccc(-c3ccccc3S(=O)(=O)NC#N)cc2)C(=O)Cc2ccccc2)cc1 [Example 125] | 63.6 |
| C#CCN(Cc1ccc(-c2ccccc2S(=O)(=O)NC#N)cc1)C(=O)CCC1CCCCC1 [Example 249] | 76.1 |
| C#CCN(Cc1ccc(-c2ccccc2S(=O)(=O)NC#N)cc1)C(=O)CCCCc1ccccc1 [Example 247] | 74.6 |
| COc1ccccc1C(=O)N(Cc1ccc(-c2ccccc2S(=O)(=O)NC#N)cc1)Cc1ccccc1C [Example 332] | 31.7 |
| CC(C)(C)OC(=O)C(c1ccccc1)N(Cc1ccc(-c2ccccc2S(=O)(=O)NC#N)cc1)C(=O)CCc1cccs1 (stereo not drawn) [Example 287] | 51.1 |
| CC(C)=CCCC(C)=CCN(Cc1ccc(-c2ccccc2S(=O)(=O)NC#N)cc1)C(=O)Cc1cccs1 [Example 313] | 17.2 |
| N#CNS(=O)(=O)c1ccccc1-c1ccc(CN(Cc2ccccc2)C(=O)c2ccccc2F)cc1 [Example 37] | 52.0 |
| N#CNS(=O)(=O)c1ccccc1-c1ccc(CN(Cc2ccccn2)C(=O)C(=O)c2cccs2)cc1 [Example 196] | 62.8 |
| N#CNS(=O)(=O)c1ccccc1-c1ccc(CN(Cc2cccs2)C(=O)Cc2ccccc2[N+](=O)[O-])cc1 [Example 252] | 44.5 |
| CN(C)c1ccc(CN(Cc2ccc(-c3ccccc3S(=O)(=O)NC#N)cc2)C(=O)Cc2cccs2)cc1 [Example 140] | 54.2 |
| N#CNS(=O)(=O)c1ccccc1-c1ccc(CN(Cc2ccccc2)C(=O)CCCCc2ccccc2)cc1 [Example 244] | 60.4 |
| N#CNS(=O)(=O)c1ccccc1-c1ccc(CN(Cc2cccs2)C(=O)C(=O)c2ccco2)cc1 [Example 254] | 64.5 |
| N#CNS(=O)(=O)c1ccccc1-c1ccc(CN(Cc2ccccc2Cl)C(=O)C(C(=O)Cc2ccccc2)c2ccccc2)cc1 (stereo not drawn) [Example 131] | 97.6 |
| N#CNS(=O)(=O)c1ccccc1-c1ccc(CN(C(=O)Cc2cccs2)C2CCCc3ccccc32)cc1 (stereo not drawn) [Example 315] | 23.5 |
| N#CNS(=O)(=O)c1ccccc1-c1ccc(CN(Cc2ccccc2Cl)C(=O)Cc2ccc(Cl)cc2)cc1 [Example 152] | 29.5 |
| COc1ccc(CN(Cc2ccc(-c3ccccc3S(=O)(=O)NC#N)cc2)C(=O)CCC2CCCCC2)cc1 [Example 9] | 86.6 |
| N#CNS(=O)(=O)c1ccccc1-c1ccc(CN(Cc2ccccc2)C(=O)c2ccccc2)cc1 [Example 61] | 56.6 |
| N#CNS(=O)(=O)c1ccccc1-c1ccc(CN(CC2CCCCC2)C(=O)CCC2CCCCC2)cc1 [Example 267] | 57.9 |
| N#CNS(=O)(=O)c1ccccc1-c1ccc(CN(Cc2ccncc2)C(=O)Cc2ccc(Cl)cc2)cc1 [Example 156] | 86.0 |
| N#CNS(=O)(=O)c1ccccc1-c1ccc(CN(Cc2ccccn2)C(=O)Cc2c[nH]c3ccccc23)cc1 [Example 204] | 52.4 |

Same assay, conditions: compound at 10 μM; R(3) to R(7) hydrogen series

| SMILES | Residual activity % of the NCBE at 10 μM [%] |
| --- | --- |
| N#CNS(=O)(=O)c1ccccc1-c1ccc(CN(Cc2cccc3ccccc23)C(=O)Cc2ccco2)cc1 [Example 391] | 55.4 |

Same assay, conditions: compound at 10 μM; sub-table with R7 substituent

| SMILES | Residual activity % of the NCBE at 10 μM [%] |
| --- | --- |
| Cc1ccc(-c2ccc(CN(Cc3ccccc3F)C(=O)CC3CCCCC3)cc2)c(S(=O)(=O)NC#N)c1 [Example 551] | 82.6 |
| Cc1ccc(-c2ccc(CN(Cc3cccs3)C(=O)Cc3ccsc3)cc2)c(S(=O)(=O)NC#N)c1 [Example 541] | 52.8 |
| Cc1ccc(-c2ccc(CN(Cc3cccc4ccccc34)C(=O)Cc3ccc(Cl)cc3)cc2)c(S(=O)(=O)NC#N)c1 [Example 530] | 89.8 |
| Cc1ccc(-c2ccc(CN(Cc3ccc4ccccc4c3)C(=O)Cc3ccc(Cl)cc3)cc2)c(S(=O)(=O)NC#N)c1 [Example 531] | 75.6 |
| Cc1ccc(-c2ccc(CN(Cc3cccc4ccccc34)C(=O)Cc3ccsc3)cc2)c(S(=O)(=O)NC#N)c1 [Example 538] | 80.3 |

Source: patent publication US6369069B1 (Aventis Pharma Deutschland GmbH, priority 1998, dated 2002)
